According to patent publication US10273237B2, “Imidazopyridazine compounds useful as modulators of IL-12, IL-23 and/or IFN-α responses” (BRISTOL-MYERS SQUIBB COMPANY, priority 2013, dated 2019):
pIC50: −log10 of the molar value.

Assays:
[1] = system: IFNα-stimulated Kit225 T cells with STAT-dependent luciferase reporter; experiment: Kit225 T cell assay, STAT-dependent luciferase reporter, IFNα stimulated; assay type: cell-based, human; conditions: 200 U/mL human recombinant IFNα, 5-6 hours, read-out: IFNa Kit225 Reporter, LE (IC50)
Experimental: (§1) Kit225 T cells with a stably-integrated STAT-dependent luciferase reporter were plated in RPMI (GIBCO) containing 10% heat-inactivated FBS (GIBCO) and 100 U/mL PenStrep (GIBCO). The cells were then stimulated with either 20 ng/mL human recombinant IL-23 or 200 U/mL human recombinant IFNα (PBL InterferonSource) for 5-6 hours. Luciferase expression was measured using the STEADY-GLO® Luciferase Assay System (PROMEGA®) according to the manufacturer's instructions.

[2] = system: IL-23-stimulated Kit225 T cells with STAT-dependent luciferase reporter; experiment: Kit225 T cell assay, STAT-dependent luciferase reporter, IL-23 stimulated; assay type: cell-based, human; conditions: 20 ng/mL human recombinant IL-23, 5-6 hours, read-out: IL-23 Kit225 Reporter, LE (IC50)
Experimental: as §1

Row | Structure (SMILES) | pIC50 [1] | pIC50 [2]
1 | CNc1cc(Nc2cccn(-c3ccccc3F)c2=O)nn2c(C(=O)NC3CC3)cnc12 [Example 152] | 6.92 | 6.44
2 | CNc1cc(Nc2cccn(-c3cc(C)n(C)n3)c2=O)nn2c(C(=O)NC3CC3)cnc12 [Example 154] | 7.52 | 7.40
3 | CNc1cc(Nc2cccn(-c3cc(C)on3)c2=O)nn2c(C(=O)NC3CCC3)cnc12 [Example 157] | 7.70 | 7.52
4 | CNc1cc(Nc2cccn(-c3ccn(C)n3)c2=O)nn2c(C(=O)NC3CCC3)cnc12 [Example 159] | 7.40 | 7.52
5 | CNc1cc(Nc2cccn(C3(C)CC3)c2=O)nn2c(C(=O)NC3CC3)cnc12 [Example 161] | 6.47 | 6.15
6 | CNc1cc(Nc2cccn(-c3ccn(C4CC4)n3)c2=O)nn2c(C(=O)N[C@@H]3C[C@@H]3F)cnc12 [Example 164] | 7.70 | 7.30
7 | CNc1cc(Nc2cccn(-c3ccn(C4CC4)n3)c2=O)nn2c(C(=O)NC3CC3)cnc12 [Example 165] | 6.89 | 6.37
8 | CNc1cc(Nc2cccn(-c3ccn(C4CC4)n3)c2=O)nn2c(C(=O)NC3CCC3)cnc12 [Example 166] | 7.30 | 6.54
9 | CNc1cc(Nc2cccn(-c3cccc(F)n3)c2=O)nn2c(C(=O)NC3(C#N)CC3)cnc12 [Example 167] | 6.89 | 7.00
10 | CNc1cc(Nc2cccn(-c3ncc(F)cn3)c2=O)nn2c(C(=O)NC3CC3)cnc12 [Example 171] | 6.85 | 6.68
11 | CNc1cc(Nc2cccn(-c3ncc(F)cn3)c2=O)nn2c(C(=O)NC3CCCC3)cnc12 [Example 172] | 6.74 | 6.59
12 | CNc1cc(Nc2cccn(-c3ncc(F)cn3)c2=O)nn2c(C(=O)NC3CCC3)cnc12 [Example 173] | 7.30 | 7.30
13 | CNc1cc(Nc2cccn(-c3ncc(F)cn3)c2=O)nn2c(C(=O)N[C@@H]3C[C@@H]3F)cnc12 [Example 174] | 7.40 | 7.30
14 | CCc1ccc(-n2cccc(Nc3cc(NC)c4ncc(C(=O)N[C@@H]5C[C@@H]5F)n4n3)c2=O)nn1 [Example 181] | 6.46 | 6.54
15 | CNc1cc(Nc2cccn(-c3nnc(C)s3)c2=O)nn2c(C(=O)N[C@@H]3C[C@@H]3F)cnc12 [Example 195] | 7.22 | 6.96
16 | CNc1cc(Nc2cccn(-c3ccc(C)nn3)c2=O)nn2c(C(=O)NCC(C)C)cnc12 [Example 200] | 6.59 | 6.96
17 | CNc1cc(Nc2cccn(-c3ccc(OC)nc3)c2=O)nn2c(C(=O)NC3CC3)cnc12 [Example 204] | 7.00 | 7.15

Row | Structure (SMILES) | pIC50 [1] | pIC50 [2]
18 | CNc1ccc(-n2cccc(Nc3cc(NC)c4ncc(C(=O)NC5CC5)n4n3)c2=O)cn1 [Example 206] | 6.42 | 6.31
19 | CNc1cc(Nc2cccn(C)c2=O)nn2c(C(=O)NC(C)C)cnc12 [Example 209] | 6.48 | 6.74
20 | CCNC(=O)c1cnc2c(NC)cc(Nc3cccn(C)c3=O)nn12 [Example 210] | 6.41 | 6.66
21 | CNc1cc(Nc2cccn(C)c2=O)nn2c(C(=O)NC3CCCCC3C)cnc12 (stereo not drawn) [Example 215] | 6.52 | 6.72
22 | CNc1cc(Nc2cccn(C(C)C)c2=O)nn2c(C(=O)NC3(C#N)CC3)cnc12 [Example 216] | 6.36 | 6.05
23 | CNc1cc(Nc2cccn(C3CCOC3)c2=O)nn2c(C(=O)NC3CC3)cnc12 (stereo not drawn) [Example 220] | 6.55 | 6.77
24 | CNc1cc(Nc2cccn(-c3nc4ccccc4[nH]3)c2=O)nn2c(C(=O)NC3CC3)cnc12 [Example 223] | 6.62 | 5.93
25 | CNc1cc(Nc2cccn(C3CCC(N4CCOCC4)CC3)c2=O)nn2c(C(=O)NC3CC3)cnc12 (stereo not drawn) [Example 224] | 6.33 | 6.17
26 | CNc1cc(Nc2cccn(C3CCC(N4CCOCC4)CC3)c2=O)nn2c(C(=O)NC3CCC3)cnc12 (stereo not drawn) [Example 225] | 7.52 | 7.00
27 | CNc1cc(Nc2cccn(C3CCCCC3)c2=O)nn2c(C(=O)NC3CC3)cnc12 [Example 226] | 7.05 | 6.62
28 | CNc1cc(Nc2cccn(C3CCC(O)CC3)c2=O)nn2c(C(=O)NC3CC3)cnc12 (stereo not drawn) [Example 227] | 6.43 | 6.21
29 | CNc1cc(Nc2cccn(C3CCC3)c2=O)nn2c(C(=O)NC3CC3)cnc12 [Example 228] | 7.00 | 6.68
30 | CNc1cc(Nc2cccn(C3CCC3)c2=O)nn2c(C(=O)NC3(C#N)CC3)cnc12 [Example 229] | 6.74 | 6.62
31 | CNc1cc(Nc2cccn(-c3ccc(C)nn3)c2=O)nn2c(C(=O)NC(C)CC(C)C)cnc12 (stereo not drawn) [Example 235] | 6.04 | 6.25
32 | CNc1cc(Nc2cccn(-c3ccccc3)c2=O)nn2c(C(=O)NC3CCC(O)C3(C)C)cnc12 (stereo not drawn) [Example 237] | 6.40 | 6.36
33 | CNc1cc(Nc2cccn(-c3cncc(C)n3)c2=O)nn2c(C(=O)NCC(C)(C)CO)cnc12 [Example 238] | 6.28 | 7.22

Further molecules by rising pIC50 [1], results first:

Row | pIC50 [1] | pIC50 [2] | Structure (SMILES)
34 | 5.61 | 6.96 | CNc1cc(Nc2cccn(C)c2=O)nn2c(C(=O)Nc3ccccc3)cnc12 [Example 212]
35 | 6.24 | 6.32 | CNc1cc(Nc2ccnn(-c3ccccc3)c2=O)nn2c(C(=O)NC3CC3)cnc12 [Example 179]
36 | 6.38 | 6.64 | CNc1cc(Nc2cccn(C(C)C)c2=O)nn2c(C(=O)NC3CC3)cnc12 [Example 213]
37 | 6.43 | 6.72 | CNc1cc(Nc2cccn(-c3ncccn3)c2=O)nn2c(C(=O)NC3CCCC3)cnc12 [Example 170]
38 | 6.46 | 6.07 | CNc1cc(Nc2cccn(-c3ccccn3)c2=O)nn2c(C(=O)NC3CCC(O)C3(C)C)cnc12 (stereo not drawn) [Example 236]
39 | 6.48 | 6.85 | CNc1cc(Nc2cccn(-c3cccc(F)n3)c2=O)nn2c(C(=O)NCc3ccccn3)cnc12 [Example 193]
40 | 6.55 | 6.14 | CCC(CC)NC(=O)c1cnc2c(NC)cc(Nc3cccn(-c4ccc(C)nn4)c3=O)nn12 [Example 233]
41 | 6.57 | 6.66 | CNc1cc(Nc2cccn(-c3ccccc3)c2=O)nn2c(C(=O)NCc3nccs3)cnc12 [Example 182]
42 | 6.57 | 6.32 | CCNc1cc(Nc2cccn(C)c2=O)nn2c(C(=O)NC3CCC3)cnc12 [Example 232]
43 | 6.60 | 6.19 | CNc1cc(Nc2cccn(C3(C)CC3)c2=O)nn2c(C(=O)NC3(C#N)CC3)cnc12 [Example 162]
44 | 6.70 | 6.72 | CNc1cc(Nc2cccn(-c3cnn(C)c3)c2=O)nn2c(C(=O)NC3CC3)cnc12 [Example 203]
45 | 6.72 | 6.64 | CNc1cc(Nc2cccn(-c3ccccc3)c2=O)nn2c(C(=O)NC3CCCC3O)cnc12 (stereo not drawn) [Example 189]
46 | 6.74 | 6.64 | CNc1cc(Nc2cccn(-c3cccc(F)n3)c2=O)nn2c(C(=O)NCc3nccs3)cnc12 [Example 192]
47 | 6.85 | 6.30 | CNc1cc(Nc2cccn(C3CCOC3)c2=O)nn2c(C(=O)NC3CCC3)cnc12 (stereo not drawn) [Example 221]
48 | 6.85 | 6.54 | CNc1cc(Nc2cccn(-c3ccc(C)nn3)c2=O)nn2c(C(=O)NC(C)COC)cnc12 (stereo not drawn) [Example 234]
49 | 6.89 | 6.72 | CNc1cc(Nc2cccn(C(C)(C)C)c2=O)nn2c(C(=O)NC3CC3)cnc12 [Example 218]
50 | 6.89 | 6.54 | CNc1cc(Nc2cccn(C3CCOC3)c2=O)nn2c(C(=O)NC3CCCC3)cnc12 (stereo not drawn) [Example 222]
51 | 6.96 | 6.51 | CNc1cc(Nc2cccn(-c3ncc(C(F)(F)F)cn3)c2=O)nn2c(C(=O)NC3CC3)cnc12 [Example 175]
52 | 7.00 | 6.89 | CNc1cc(Nc2cccn(-c3ccn(C)n3)c2=O)nn2c(C(=O)NC3CC3)cnc12 [Example 158]
53 | 7.00 | 7.05 | CNc1cc(Nc2cccn(C(C)C)c2=O)nn2c(C(=O)NCC(C)(C)CO)cnc12 [Example 217]
54 | 7.15 | 6.60 | CNc1cc(Nc2cccn(C(C)(C)C)c2=O)nn2c(C(=O)NC3(C#N)CC3)cnc12 [Example 219]
55 | 7.22 | 7.10 | CNc1cc(Nc2cccn(-c3ccccc3F)c2=O)nn2c(C(=O)NC3(C#N)CC3)cnc12 [Example 156]
56 | 7.22 | 7.10 | CNc1cc(Nc2cccn(C)c2=O)nn2c(C(=O)NC3CCCC3)cnc12 [Example 208]
57 | 7.40 | 7.10 | CNc1cc(Nc2cccn(-c3ccn(C)n3)c2=O)nn2c(C(=O)N[C@@H]3C[C@@H]3F)cnc12 [Example 169]
58 | 7.40 | 6.80 | CNc1cc(Nc2ccnn(-c3cccc(C#N)c3)c2=O)nn2c(C(=O)N[C@@H]3C[C@@H]3F)cnc12 [Example 196]
59 | 7.52 | 7.30 | CNc1cc(Nc2cccn(-c3cc(C)n(C)n3)c2=O)nn2c(C(=O)N[C@@H]3C[C@@H]3F)cnc12 [Example 160]
60 | 7.70 | 7.40 | CNc1cc(Nc2cccn(-c3ccccc3)c2=O)nn2c(C(=O)N[C@@H]3C[C@@H]3F)cnc12 [Example 191]
